Like-named read-outs stand apart in the source and are kept apart here.
Key:
[1] = tested on: human lung fibroblast cell line WI-38; test: Inhibition of IL-1β-induced PGE2 production, whole cell-based assay; settings: for PGE2 (pg/ml) / PGE2: IL-1β 100 pg/mL, 24 hours; for IC50: Homo sapiens; for anti-inflammatory activity in vitro, R- versus S-enantiomer: conclusion from Tables 1-4
Procedure: Compounds were tested for anti-inflammatory activity using a whole cell-based assay, wherein the human lung fibroblast cell line WI-38 was cultured in Eagle's basal media supplemented with 10% fetal calf serum (FCS) in 48-well tissue culture dishes in a humidified 7% CO2 atmosphere at 37° C. When the cells reached confluence, they were fed with fresh media for 24 hours. The media was removed and fresh media, containing either 5% or 10% FCS, was added to the cells. […] Interleukin-1β (Calbiochem) in 0.1% bovine serum albumin in phosphate buffered saline was added in a 1 μL aliquot to give a final concentration of 100 pg/mL. The cells were cultured for 24 hours and the amount of PGE2 secreted into the cell culture media was assayed using a PGE2 enzyme immunoassay kit (Cayman Chemicals, Ann Arbor, Mich.). Inhibition of PGE2 production is indicative of anti-inflammatory activity.
The IC50 values of enantiomerically pure R- and S-norfluoxetine were determined by incubation of the WI-38 cells with varying concentrations of the compounds in question ([…]). The PGE2 produced for each concentration was plotted against the concentration of compound using the 6 safit 4.0 program (Erithacus software) and the IC50 determined by fitting the data to the 4-parameter equation.

[2] = Serum levels of norfluoxetine after fluoxetine treatment (Prozac package insert); type: in vivo; settings: human, oral, humans, after treatment for 30 days with 40 mg per day of fluoxetine, approximate conversion of ng/ml
Excerpt: It is noteworthy that these values, especially that of R-norfluoxetine, fall within values that may be obtained in serum in humans.

[3] = tested on: serotonin reuptake; settings: Physicians' Desk Reference; cited from earlier work
[4] = Table 1, 10% fetal calf serum-containing media, compound 0.5 uM
[5] = Table 1, 10% fetal calf serum-containing media, compound 10 uM
[6] = Table 2, 5% fetal calf serum-containing media, compound 0.5 uM
[7] = Table 2, 5% fetal calf serum-containing media, compound 10 uM
[8] = Table 3, 10% fetal calf serum-containing media, compound 0.5 uM
[9] = Table 3, 10% fetal calf serum-containing media, compound 10 uM
[10] = Table 4, 5% fetal calf serum-containing media, compound 0.5 uM
[11] = Table 4, 5% fetal calf serum-containing media, compound 10 uM

Row | Structure (SMILES) | PGE2 (pg/ml) [1, 4] | PGE2 (pg/ml) [1, 5] | PGE2 (pg/ml) [1, 6] | PGE2 (pg/ml) [1, 7] | PGE2 [1, 6] | PGE2 [1, 4] | further results
1 | CNCCC(Oc1ccc(C(F)(F)F)cc1)c1ccccc1 (racemic) [rac-fluoxetine, (±)-N-methyl-γ-[4-(trifluoromethyl)-phenoxy]benzenepropanamine] | low | low | low | low | – | – | PGE2 [1, 8]: 545 pg/mL; PGE2 [1, 9]: 156 pg/mL; PGE2 [1, 10]: 22 pg/mL; PGE2 (pg/ml) [1, 11]: low
2 | CC(C(=O)O)c1cccc(C(=O)c2ccccc2)c1 (racemic) [rac-ketoprofen, ketoprofen] | – | low | – | low | 119 pg/mL | – | –
3 | NCCC(Oc1ccc(C(F)(F)F)cc1)c1ccccc1 (racemic) [rac-norfluoxetine, (±)-γ-[4-(trifluoromethyl)-phenoxy]benzenepropanamine] | – | low | low | low | – | 189 pg/mL | concentration at 30 days [2]: 230 to 830 nM
4 | C[C@@H](C(=O)O)c1cccc(C(=O)c2ccccc2)c1 [(R)-ketoprofen] | low | low | low | low | – | – | –
5 | NCC[C@@H](Oc1ccc(C(F)(F)F)cc1)c1ccccc1 [(R)-norfluoxetine, R-norfluoxetine] | – | – | – | – | 255 pg/mL | 714 pg/mL | potency in inhibiting serotonin uptake [3]: significantly less potent than racemic fluoxetine; IC50 ([1]; WI-38, read-out: IC50 (PGE2 produced)): ~0.79 µM; PGE2 [1, 5]: 159 pg/mL; PGE2 [1, 7]: 31 pg/mL; anti-inflammatory activity in vitro, R- versus S-enantiomer [1]: substantially equipotent
6 | C[C@H](C(=O)O)c1cccc(C(=O)c2ccccc2)c1 [(S)-ketoprofen] | low | low | – | low | 145 pg/mL | – | –
7 | NCC[C@H](Oc1ccc(C(F)(F)F)cc1)c1ccccc1 [(S)-norfluoxetine, S-norfluoxetine] | – | – | – | – | 483 pg/mL | 809 pg/mL | potency in inhibiting serotonin uptake [3]: potent and selective serotonin uptake inhibition; IC50 ([1]; WI-38 cells, 0.009-20 concentrations, 4-parameter fit, read-out: IC50 (PGE2 produced)): ~1.4 µM; PGE2 [1, 5]: 486 pg/mL; PGE2 [1, 7]: 112 pg/mL; anti-inflammatory activity in vitro, R- versus S-enantiomer [1]: substantially equipotent
8 | Cc1ccc(-c2cc(C(F)(F)F)nn2-c2ccc(S(N)(=O)=O)cc2)cc1 [celebrex] | low | low | – | low | 16 pg/mL | – | PGE2 (pg/ml) [1, 8]: low; PGE2 (pg/ml) [1, 9]: low; PGE2 (pg/ml) [1, 10]: low; PGE2 (pg/ml) [1, 11]: low
9 | CNCCC=C1c2ccccc2CCc2ccccc21 [nortriptylene] | – | – | – | – | – | – | PGE2 [1, 8]: 2040 pg/mL; PGE2 [1, 9]: 648 pg/mL; PGE2 [1, 10]: 880 pg/mL; PGE2 [1, 11]: 331 pg/mL
